Test results published in US10688200B2, “Urea-based prostate specific membrane antigen (PSMA) inhibitors for imaging and therapy” (Five Eleven Pharma Inc., priority 2015, dated 2020).

Columns and labels:
[1] = Biodistribution of radiotracers in normal mice; format: in vivo, mouse; settings: normal male mice
Outline: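 Male CD-1 mice received 35 μCi [^68Ga] radiotracer (0.2 nmole ligand) by tail vein. Four mice per time point sacrificed at 2, 30, 60 and 120 min p.i.; organs and blood weighed and gamma counted. %ID/g calculated against a standard dilution of the dose, decay-corrected.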

[2] = system: LNCaP tumor bearing nude mice; assay: Biodistribution of [68Ga]labeled ligand in PSMA positive tumor bearing nude mice; format: in vivo, mouse; settings: 1 h post-injection, i.v., n = 3
Description: In a dish contained 5×10^6 cells of LNCaP in 50% Matrigel (Becton Dickinson, Heidelberg, Germany) were subcutaneously inoculated into the left shoulder of male 5- to 6-week-old CD-1 nu/nu mice (Charles River Laboratories). The tumors were allowed to grow for 8 weeks until approximately 0.5 cm^3 in size.
The ^68Ga-radiolabeled compounds were injected via tail vein (25 μCi per mouse; 0.1-0.2 nmol). At 1 h after injection, the animals were sacrificed. Organs of interest were dissected and weighed. The radioactivity was measured with a gamma counter and calculated as % ID/g.

O=C(O)CCc1ccc2c(c1)C[N+]13CC[N+]45CC(=O)[O][68Ga-3]14([O]C(=O)C3)([O]2)[O]c1ccc(CCC(=O)NCC(=O)N[C@@H](Cc2ccc(OCC(=O)N[C@@H](Cc3ccccc3)C(=O)NCCCC[C@H](NC(=O)N[C@@H](CCC(=O)O)C(=O)O)C(=O)O)cc2)C(=O)O)cc1C5 (stereo partly shown) [[^68Ga]5b]
Biodistribution: Brain ([1]; 2 min): 0.19 ± 0.02 % dose/g
Biodistribution: Heart ([1]; 2 min): 4.33 ± 0.11 % dose/g
Biodistribution: Kidney ([1]; 2 min): 50.32 ± 3.31 % dose/g
Biodistribution: Liver ([1]; 2 min): 2.97 ± 0.24 % dose/g
Biodistribution: Lung ([1]; 2 min): 5.75 ± 0.26 % dose/g
Biodistribution: Muscle ([1]; 2 min): 1.97 ± 0.16 % dose/g
Biodistribution: Pancreas ([1]; 2 min): 2.18 ± 0.04 % dose/g
Biodistribution: Skin ([1]; 2 min): 2.38 ± 0.10 % dose/g
Biodistribution: Spleen ([1]; 2 min): 3.86 ± 0.57 % dose/g
Biodistribution: Blood ([1]; 30 min): 1.13 ± 0.13 % dose/g
Biodistribution: Bone ([1]; 30 min): 0.60 ± 0.02 % dose/g
Biodistribution: Brain ([1]; 30 min): 0.05 ± 0.01 % dose/g
Biodistribution: Heart ([1]; 30 min): 0.98 ± 0.06 % dose/g
Biodistribution: Kidney ([1]; 30 min): 73.96 ± 5.56 % dose/g
Biodistribution: Liver ([1]; 30 min): 0.95 ± 0.11 % dose/g
Biodistribution: Lung ([1]; 30 min): 2.63 ± 0.08 % dose/g
Biodistribution: Muscle ([1]; 30 min): 0.67 ± 0.05 % dose/g
Biodistribution: Pancreas ([1]; 30 min): 0.80 ± 0.09 % dose/g
Biodistribution: Skin ([1]; 30 min): 1.14 ± 0.15 % dose/g
Biodistribution: Spleen ([1]; 30 min): 1.70 ± 0.44 % dose/g
Biodistribution: Blood ([1]; 60 min): 0.48 ± 0.11 % dose/g
Biodistribution: Bone ([1]; 60 min): 0.38 ± 0.04 % dose/g
Biodistribution: Brain ([1]; 60 min): 0.03 ± 0.00 % dose/g
Biodistribution: Heart ([1]; 60 min): 0.40 ± 0.09 % dose/g
Biodistribution: Kidney ([1]; 60 min): 62.77 ± 12.55 % dose/g
Biodistribution: Liver ([1]; 60 min): 0.54 ± 0.09 % dose/g
Biodistribution: Lung ([1]; 60 min): 1.28 ± 0.31 % dose/g
Biodistribution: Muscle ([1]; 60 min): 0.31 ± 0.07 % dose/g
Biodistribution: Pancreas ([1]; 60 min): 0.52 ± 0.02 % dose/g
Biodistribution: Skin ([1]; 60 min): 0.58 ± 0.19 % dose/g
Biodistribution: Spleen ([1]; 60 min): 1.71 ± 0.66 % dose/g
Biodistribution: Blood ([1]; 120 min): 0.27 ± 0.07 % dose/g
Biodistribution: Bone ([1]; 120 min): 0.26 ± 0.01 % dose/g
Biodistribution: Brain ([1]; 120 min): 0.02 ± 0.00 % dose/g
Biodistribution: Heart ([1]; 120 min): 0.22 ± 0.06 % dose/g
Biodistribution: Kidney ([1]; 120 min): 49.00 ± 4.76 % dose/g
Biodistribution: Liver ([1]; 120 min): 0.37 ± 0.06 % dose/g
Biodistribution: Lung ([1]; 120 min): 0.61 ± 0.07 % dose/g
Biodistribution: Muscle ([1]; 120 min): 0.16 ± 0.01 % dose/g
Biodistribution: Pancreas ([1]; 120 min): 0.32 ± 0.02 % dose/g
Biodistribution: Skin ([1]; 120 min): 0.26 ± 0.02 % dose/g
Biodistribution: Spleen ([1]; 120 min): 1.39 ± 0.38 % dose/g
Organ distribution: Blood [2]: 0.46 ± 0.04 % dose/g
Organ distribution: Bone [2]: 0.27 ± 0.07 % dose/g
Organ distribution: Brain [2]: 0.05 ± 0.01 % dose/g
Organ distribution: Heart [2]: 0.51 ± 0.12 % dose/g
Organ distribution: Liver [2]: 0.78 ± 0.09 % dose/g
Organ distribution: Lung [2]: 2.27 ± 0.37 % dose/g
Organ distribution: Muscle [2]: 0.34 ± 0.07 % dose/g
Organ distribution: Pancreas [2]: 0.97 ± 0.23 % dose/g
Organ distribution: Skin [2]: 1.16 ± 0.57 % dose/g
Organ distribution: Spleen [2]: 11.09 ± 3.35 % dose/g
